Measurements reported in PMC12667295, “A surrogate barrier model for high-throughput blood-brain barrier permeability prediction: integrating LLC-PK1-MOCK/MDR1 Cells and lysosomal trapping correction” (Drug Delivery, 2025).

Experiments:
[1] = test system: P-gp (human MDR1); assay: Bidirectional transport across LLC-PK1-MDR1 monolayer stably expressing human MDR1 (P-gp) (Transwell); conditions: pig; for efflux ratio at 2 h, 2 µM: LLC-PK1, pH 7.4, ER, LLC-PK1-MDR1, Papp (B-A)/Papp (A-B);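 on all read-outs here: 2 h incubation at 37 °C, receiver HBSS with 10 mM Hepes plus 1% BSA, LC-MS/MS of donor and receiver, recovery as receiver plus donor amount over initial donor amount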
[2] = ref Fridén [2009]; cited from earlier work
[3] = parameters: method as in not given; conditions: stated without method; ref not given; cited from earlier work
[4] = LLC-PK1 MOCK/MDR1 monolayer model, results stated for both cell lines jointly; conditions: pig, LLC-PK1 MOCK and LLC-PK1-MDR1 cell monolayers (Transwell)
Description: Monitoring of TEER value and LY permeability. After the LLC-PK1 MOCK/MDR1 cells attach to the Transwell insert, TEER (Transepithelial Electrical Resistance) values were continuously recorded using a cell resistance meter (Beijing JINGONGHONGTAI Technology Co., Ltd). These TEER values represent the mean from six individual inserts (n = 6) measured per group. The TEER measurement and transport experiment were conducted at 37 °C, using a heating plate to maintain the required temperature. The transmembrane resistance was calculated using the formula TEER = (Rtotal-Rblank) × Aarea, where Rblank represents the TEER of the blank chamber.
The permeability of the Lucifer Yellow CH Dipotassium Salt (LY, 100 μM) across the monolayers was measured in apical-to-basolateral direction to monitor the integrity of the cell monolayer.
Bidirectional transport experiments. […] The transwell experiments were conducted following above-mentioned procedure.

[5] = Bidirectional transport across LLC-PK1 MOCK monolayer (Transwell); conditions: pig; for recovery at 2 h, 2 µM: LLC-PK1 MOCK cell monolayer (Transwell), pH 7.4, Recovery after correction of intracellular accumulation data, cell lysate included, mean±SD, n=3;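 on all read-outs here: compound quantified by LC-MS/MS in donor and receiver wells, efflux ratio as B-A over A-B Papp, recovery relative to initial donor amount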
Description: (§1) Cells were passaged at 80−90% confluence (every 2−3 days) using trypsin-EDTA solution. […] The culture medium was replaced every other day, including 200 µL culture medium in the apical and 850 µL cell culture medium in the basolateral side. LLC-PK1 MOCK cells were used at passages of 3−30. LLC-PK1-MDR1 cells were cultured and passaged in the same manner as LLC-PK1 cells except at the density of 1 × 10^4 cells per well. LLC-PK1-MDR1 cells were used at passages of 3−25. For LLC-PK1 MOCK cells and LLC-PK1-MDR1 cells, the experiments were performed on the 4th and 7th day after seeding.
(§2) Samples were collected from the donor well at the start of the incubation (50 µL) as C0, and from the donor and receiver wells at the end of the incubation (50 µL). All samples were stored at - 40 °C for LC-MS/MS analysis.
(§3) Bidirectional transport experiments. […] The transwell experiments were conducted following above-mentioned procedure. […] When the recovery rate of the tested drug is below 80%, the possibility of intracellular accumulation should be considered. The polycarbonate (PC) membrane where cells are grown should be carefully peeled off from the cell culture medium and placed in 100 µL of HBSS buffer solution. […] The process was carried out on ice to prevent heat-induced degradation, applying a power in the range of 300 W for a total duration of 20 minutes. Thereafter, a quantitative analysis of the intracellular drug was conducted, and the drug recovery rate was recalculated based on this analysis.
(§4) The apparent permeability coefficient (Papp, cm/s) was calculated for each transport direction, A-B and B-A, using the following equation: Papp=dQ/dt×1/A×C0 where dQ/dt is the permeation rate (µmol/s), A is the surface area of the insert (0.33 cm^2, Corning), and C0 is the initial donor concentration (µM).
(§5) The efflux ratio (ER) is calculated as the ratio of Papp (B-A)/Papp (A-B). Recovery=TRcumrf+Cdf×VD/Cdi×VD×100% Where TRcumrf is the cumulative transported mass in the receiver chamber at the end of the incubation (nmol), Cdf is the concentration of the drug in the donor chamber at the end of the incubation (μM), VD is the volume of the donor chamber (mL), and Cdi is the initial concentration of the drug in the donor chamber (μM).
(§6) The method of the bidirectional transport experiment was the same as before.

[6] = test system: LLC-PK1-MDR1 cells; assay: Bidirectional transport across LLC-PK1-MDR1 monolayer stably expressing human MDR1 (P-gp) (Transwell);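 further: 2 h incubation at 37 °C, receiver HBSS with 10 mM Hepes plus 1% BSA, LC-MS/MS of donor and receiver, recovery as receiver plus donor amount over initial donor amount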
[7] = in vitro; conditions: pig, LLC-PK1 MOCK cell monolayer (Transwell), pH 7.4
Description: as §1, §2, §3, §4, §5, §6

[8] = test system: LLC-PK1-MDR1 cells
[9] = in vitro; conditions: rat, brain homogenate
Description: Stocks (10 mM) of test compounds were diluted to 5 μM with plasma or tissue homogenate and dialyzed at 37 °C for 6 hours in a shaking incubator. After incubation aliquots of both plasma or tissue homogenate and buffer from the device were taken and added to equal volumes of blank buffer and plasma or tissue homogenate respectively. Samples were then diluted in acetonitrile containing an internal standard prior to centrifugation and analysis of the supernatants by LC-MS/MS. The fu, plasma was calculated using Equation 1:(1) fu,plasma=Concbuffer chamber/Concsample chamber
Rat fraction unbound in brain (fu, brain) was determined as the ratio of concentration in buffer to that in brain.
Unbound fractions of test drugs in plasma (fu,plasma) and brain tissue (fu,brain). For compounds with existing rat plasma or brain protein-binding data from literature or internal studies, values were directly adopted.

[10] = footnote b, species not stated; ref https://go.drugbank.com; cited from earlier work
[11] = in vivo; conditions: SD, rat, iv, 1 mg/kg
Text: In vivo unbound brain distribution data (Kp,uu,Brain) for 16 drugs and total brain distribution data (Kp,Brain) for 16 drugs was acquired from literature. […] For each tested compound, fifteen rats were randomly divided into five groups of three rats each. […] The time of execution of the rats by CO2 inhalation after administration was optimized according to the in vivo elimination rate to achieve five concentrations of different time points. After the rats were euthanized, cardiac puncture was performed immediately to remove as much whole blood as possible (~7 ml) from the systemic circulation (Quantitatively aliquot 0.2 ml of whole blood for the determination of drug concentration in plasma). Afterwards, the brain tissue was collected immediately and rinsed repeatedly with ice-cold saline 3 times. Then, the surface saline was blotted dry with clean filter paper to remove as much residual drug in the blood vessels as possible. Plasma samples were prepared by centrifugation of the blood samples at 2,500 g for 10 minutes at 4 °C. All brain samples were homogenized by adding 4-fold volume water. All samples were stored at -40 °C before LC-MS/MS analysis. […] The brain tissue partition coefficient (Kp, brain) and brain-to-plasma unbound drug partition ratio (Kp,uu, brain) are calculated according to the following formulas, respectively: Kp,brain=AUC(0−∞,brain)/AUC(0−∞,plasma)Kp,uu,brain=Kp,brain×(fu,tissue/fu,plasma)
Free brain-to-plasma distribution coefficients (Kp,uu,brain) of 41 drugs. Brain distribution coefficients (Kp,uu,brain) were calculated for 41 drugs. […] Plasma and brain concentration-time profiles were generated, and AUC(0-t) values for both matrices were calculated using WinNolin 8.1. Kp,brain was derived as the ratio of brain-to-plasma AUC(0-t).
Kp,uu,brain values were computed by normalizing Kp,brain to unbound fractions (fu,plasma and fu,brain).

[12] = test system: LLC-PK1 MOCK cells; assay: Bidirectional transport across LLC-PK1 MOCK monolayer (Transwell); conditions: LLC-PK1 MOCK, 2 µM, 2 h, mean ± s, n = 3; BLQ = below 2 nM;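 further: compound quantified by LC-MS/MS in donor and receiver wells, efflux ratio as B-A over A-B Papp, recovery relative to initial donor amount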
Description: as §1, §2, §3, §4, §5, §6

[13] = test system: P-gp (human MDR1); assay: in vitro; conditions: pig, LLC-PK1, pH 7.4
[14] = LLC-PK1, pH 7.4, Papp A-B, LLC-PK1-MDR1, 2 µM, 2 h, mean ± s, n = 3
[15] = LLC-PK1, pH 7.4, Papp A-B, LLC-PK1 MOCK, 2 h, mean ± s, n = 3, BLQ = below 2 nM

Papp B→A at 2 h, 2 µM ([1]; LLC-PK1, pH 7.4) [×10⁻⁶ cm/s]	efflux ratio at 2 h, 2 µM [1]	Papp A→B at 2 h, 2 µM [1, 14] [×10⁻⁶ cm/s]	Papp B→A at 2 h, 2 µM ([5]; LLC-PK1, pH 7.4) [×10⁻⁶ cm/s]	Papp A→B at 2 h, 2 µM [5, 15] [×10⁻⁶ cm/s]	Papp A→B at 2 h, 2 µM ([1]; LLC-PK1, pH 7.4) [×10⁻⁶ cm/s]	recovery at 2 h, 2 µM [7] [%]	Papp A-B [12]	recovery at 2 h, 2 µM [13] [%]	Compound	Kp, Brain [2]	Kp,uu,Brian [2]	further results
12.7 ± 1.19	1.85	6.84 ± 0.72	13.8 ± 1.58	9.98 ± 0.69					CN(C)CCC=C1c2ccccc2CCc2ccccc21 [Amitriptyline]	20.15	0.73	pKa [3]: > 7; recovery at 2 µM ([4]; pH 7.4, Recovery after cell lysate extraction, intracellular drug included): > 80%; recovery at 2 µM ([4]; pH 7.4, Recovery, bidirectional transport, uncorrected): < 80%; recovery at 2 µM ([4]; pH 7.4, with bafilomycin A1 1 µM (inhibitor of lysosomal function), Recovery, with 1 µM Bafilomycin A1, bidirectional transport): 80 to 120%; efflux ratio at 2 h, 2 µM ([5]; LLC-PK1, pH 7.4, ER, LLC-PK1 MOCK, Papp (B-A)/Papp (A-B)): 1.38; recovery at 2 h, 2 µM ([5]; A-B, LLC-PK1 MOCK): 80.01 ± 0.69%; recovery at 2 h, 2 µM ([5]; B-A, LLC-PK1 MOCK): 90 ± 9.68%
7.79 ± 0.91			1.75 ± 0.07	1.91 ± 0.13	1.15 ± 0.28	95 ± 5.24			C[C@H]1O[C@@H](O[C@H]2[C@@H](O)C[C@H](O[C@H]3[C@@H](O)C[C@H](O[C@H]4CC[C@@]5(C)[C@H](CC[C@@H]6[C@@H]5C[C@@H](O)[C@]5(C)[C@@H](C7=CC(=O)OC7)CC[C@]65O)C4)O[C@@H]3C)O[C@@H]2C)C[C@H](O)[C@@H]1O [Digoxin]			increase in apical-to-basolateral (A→B) permeability ([6]; LLC-PK1-MDR1, with 5 μM tariquidar vs without): 3.97 fold; Papp at 2 h, 2 µM ([5]; LLC-PK1, pH 7.4): 2.17 ×10⁻⁶ cm/s; Papp at 2 h, 2 µM ([5]; LLC-PK1, pH 7.4, with tariquidar 5 µM (P-gp inhibitor)): 2.1 ×10⁻⁶ cm/s; recovery [8]: 109 ± 16%
0.45 ± 0.05	0.81	0.55 ± 0.1				85.8 ± 4.58	BLQ	83.3 ± 5.67	CN(Cc1cnc2nc(N)nc(N)c2n1)c1ccc(C(=O)N[C@@H](CCC(=O)O)C(=O)O)cc1 [Methotrexate]	0.004	0.006	Papp B-A [12]: BLQ

The next lines start with the compound.

Compound	Papp B→A at 2 h, 2 µM ([1]; LLC-PK1, pH 7.4) [×10⁻⁶ cm/s]	efflux ratio at 2 h, 2 µM [1]	Papp A→B at 2 h, 2 µM [1, 14] [×10⁻⁶ cm/s]	Papp B→A at 2 h, 2 µM ([5]; LLC-PK1, pH 7.4) [×10⁻⁶ cm/s]	Papp A→B at 2 h, 2 µM [5, 15] [×10⁻⁶ cm/s]	Papp A→B at 2 h, 2 µM ([1]; LLC-PK1, pH 7.4) [×10⁻⁶ cm/s]	recovery at 2 h, 2 µM [7] [%]	Papp A-B [12]	recovery at 2 h, 2 µM [13] [%]	Kp, Brain [2]	Kp,uu,Brian [2]	further results
COc1cccc2c1C(=O)c1c(O)c3c(c(O)c1C2=O)C[C@@](O)(C(=O)CO)C[C@@H]3O[C@H]1C[C@H](N)[C@H](O)[C@H](C)O1 [Doxorubicin]	3.47 ± 0.39			0.09 ± 0.01		0.95 ± 0.16		BLQ				fraction unbound at 6 h, 5 µM [9]: < 0.01; Protein binding in plasma [10]: 75^b %; Kp uu [11]: < 0.012; Kp ([11]; Kp, Brain): 0.291; Kp ([11]; Kp,uu,Brian): 0.012
COCCc1ccc(OCC(O)CNC(C)C)cc1 (centres unmarked) [Metoprolol]				24 ± 1.39	30.1 ± 3.88		114 ± 8.95		116 ± 1.08			Papp A-B ([6]; LLC-PK1-MDR1, positive control drugs run with each batch (n = 15), 2 µM): exceeded 20 × 10^−⁶ cm/s; Papp A→B at 2 h, 2 µM ([5]; LLC-PK1, pH 7.4, Papp (A-B), LLC-PK1 MOCK, positive control drugs run with each batch (n = 15)): > 20 ×10⁻⁶ cm/s
